These results are taken from patent US7642047B2, “Method of screening cell death modulators” (priority 2003, dated 2010).

The test system of test [1] is GDNF-deprived sympathetic neurons. The experiment in a line: Survival assay of GDNF-deprived sympathetic neurons. Type of test: cell-based, rat. The arrangement: protection of GDNF-deprived neurons (FIG. 5B legend): dose or concentration left out as unconfirmed. Here is the method:
(§1) Briefly, the neurons of postnatal day-1-2 Han/Wi strain rats were grown six days in vitro on polyornithine -laminin-coated dishes or glass coverslips with 100 ng/ml of human GDNF (PeproTech) or 30 ng/ml of 2.5 S mouse NGF (Promega). […] To reduce the number of nonneuronal cells, 1 μM cytosine arabinoside (Sigma-Aldrich) was always included next day after plating, but was not added to factor-deprived neurons. To deprive GDNF, the cultures were washed gently three times with GDNF-free culture medium. To remove NGF, the cultures were washed once with NGF-free medium and function-blocking anti-NGF antibodies (Roche) were added. The compounds of interest were added and initial neurons were counted immediately after neurotrophic factor deprivation. Living neurons were counted daily by a “blind” experimenter not aware of the identity of experimental groups. The following compounds were assayed: broad-range caspase inhibitor boc-aspartyl(OMe) -fluoromethylketone. […] When the compounds were dissolved in DMSO, the same amount of DMSO was always added to the control cultures.
(§2) In all studies described below, the neurons from newborn rat SCG were maintained in sister dishes with GDNF (100 ng/ml) or NGF (30 ng/ml) for six DIV, then deprived of these factors for 48 or 72 hours, and analysed. NGF- and GDNF-responsive neurons were always analysed in parallel and received identical treatment.

For test [2], the system named is NGF-deprived sympathetic neurons. The experiment in a line: Survival assay of NGF-deprived sympathetic neurons. More on the design: protection of NGF-deprived neurons (FIG. 5B legend): dose or concentration left out as unconfirmed. Type of test: cell-based, rat. Here is the method: as §1, §2
The test system of test [3] is newborn rat sympathetic neurons from the superior cervical ganglion. The experiment in a line: Survival of newly isolated sympathetic neurons maintained with neurotrophic factor. Type of test: cell-based. Here is the method:
FIGS. 1A, 1B, and 1C. […] (1A) Newly isolated neurons were grown with GDNF (100 ng/ml), NGF (30 ng/ml) or without neurotrophic factors for eight days. The living neurons were counted daily and expressed as percent of initial neurons, counted two hours after plating. The mean±standard error of the mean of three independent cultures is shown for each data point. (1B) Newly isolated neurons were maintained with different doses of GDNF for six days. The living neurons were counted daily and expressed as percent of initial neurons, counted two hours after plating. For comparison, survival with NGF (30 ng/ml) is also shown. […] Living neurons were counted daily and expressed as percent of initial neurons counted immediately after factor deprivation. […]
Briefly, the neurons of postnatal day-1-2 Han/Wi strain rats were grown six days in vitro on polyornithine -laminin-coated dishes or glass coverslips with 100 ng/ml of human GDNF (PeproTech) or 30 ng/ml of 2.5 S mouse NGF (Promega). […] The compounds of interest were added and initial neurons were counted immediately after neurotrophic factor deprivation. Living neurons were counted daily by a “blind” experimenter not aware of the identity of experimental groups. […]
In similar conditions, about 98% of the NGF-maintained neurons had survived (FIG. 1 A). […] NGF- and GDNF-responsive neurons were always analysed in parallel and received identical treatment. […]

Setting [4] is: BAF at 50 μM, living neurons counted 72 h after deprivation.
Where [5] appears, read: living neurons counted 72 h after treatment and deprivation.

Turning to `COC(=O)CC(NC(=O)OC(C)(C)C)C(=O)CF` (stereo not drawn) [BAF, boc-aspartyl(OMe)-fluoromethylketone], in test [1] (setting [4]), the “effect on death of GDNF-deprived neurons” value is “almost completely blocked death”. Further, the “protection of GDNF-deprived neurons (FIG. 5B legend)” value in test [1] (setting [5]) is on record as “protects”. Besides, in test [2] (setting [4]), the “effect on death of NGF-deprived neurons” value is “almost completely blocked death”. For the same molecule, the “protection of NGF-deprived neurons (FIG. 5B legend)” value in test [2] (setting [5]) is recorded as “protects”.

B1: GDNF: human GDNF (PeproTech), glial cell line-derived neurotrophic factor (protein, UniProt P39905 78-211, looked up)
Glial cell line-derived …: SPDKQMAVLPRRERNRQAAAANPENSRGKGRRGQRGKNRGCVLTAIHLNVTDLGLGYETKEELIFRYCSGSCDAAETTYDKILKNLSRNRRLVSDKVGQACCRPIAFDDDLSFLDDNLVYHILRKHSAKRCGCI
As for B1, in test [3] (by sixth day in vitro, GDNF 100 ng/ml or NGF 30 ng/ml, percent of initial neurons counted two hours after plating), the “initially plated neurons survived” value is “about 34%”. In addition, the “saturating concentration for SCG neurons” value in test [3] (dose-dependence study, neurons maintained six days) is 100 ng/mL.
